Laboratory results published in patent publication US8993616B2, “(aza)indole derivative and use thereof for medical purposes” (Kissei Pharmaceutical Co., Ltd., priority 2007, dated 2015).

Experiments:
[1] = Serum hypouricemic effect; format: in vivo; conditions: 3 mg/kg orally, overnight fasted male CD (SD) IGS rats, 2 hours after administration
Description: (1) Method for Measurement
Test compounds at 3 mg/kg suspended in 0.5% methylcellulose solution were administered orally to overnight fasted male CD (SD) IGS rats (5-week-old, Charls River Japan). At 2 hours after administration, blood was collected under ether anesthesia from abdominal aorta, and serum was separated according to general method. Serum uric acid values were determined by use of uric acid measurement kit (Uric acid C-Test Wako: Wako), and percent decrease in uric acid was calculated according to the formula described below.
Percent decrease in uric acid (%)=(Serum uric acid values in control animals—Serum uric acid values in animals administered test compounds)×100/Serum uric acid values in control animals

[2] = target: Xanthine oxidase (from bovine milk, Sigma) (Bos taurus (Bovine), UniProt P80457); assay: Xanthine oxidase inhibitory activity; format: biochemical; conditions: xanthine substrate, 10 minutes at room temperature, absorbance at 290 nm
Chain of Xanthine oxidase (from bovine milk, Sigma) (P80457 whole entry): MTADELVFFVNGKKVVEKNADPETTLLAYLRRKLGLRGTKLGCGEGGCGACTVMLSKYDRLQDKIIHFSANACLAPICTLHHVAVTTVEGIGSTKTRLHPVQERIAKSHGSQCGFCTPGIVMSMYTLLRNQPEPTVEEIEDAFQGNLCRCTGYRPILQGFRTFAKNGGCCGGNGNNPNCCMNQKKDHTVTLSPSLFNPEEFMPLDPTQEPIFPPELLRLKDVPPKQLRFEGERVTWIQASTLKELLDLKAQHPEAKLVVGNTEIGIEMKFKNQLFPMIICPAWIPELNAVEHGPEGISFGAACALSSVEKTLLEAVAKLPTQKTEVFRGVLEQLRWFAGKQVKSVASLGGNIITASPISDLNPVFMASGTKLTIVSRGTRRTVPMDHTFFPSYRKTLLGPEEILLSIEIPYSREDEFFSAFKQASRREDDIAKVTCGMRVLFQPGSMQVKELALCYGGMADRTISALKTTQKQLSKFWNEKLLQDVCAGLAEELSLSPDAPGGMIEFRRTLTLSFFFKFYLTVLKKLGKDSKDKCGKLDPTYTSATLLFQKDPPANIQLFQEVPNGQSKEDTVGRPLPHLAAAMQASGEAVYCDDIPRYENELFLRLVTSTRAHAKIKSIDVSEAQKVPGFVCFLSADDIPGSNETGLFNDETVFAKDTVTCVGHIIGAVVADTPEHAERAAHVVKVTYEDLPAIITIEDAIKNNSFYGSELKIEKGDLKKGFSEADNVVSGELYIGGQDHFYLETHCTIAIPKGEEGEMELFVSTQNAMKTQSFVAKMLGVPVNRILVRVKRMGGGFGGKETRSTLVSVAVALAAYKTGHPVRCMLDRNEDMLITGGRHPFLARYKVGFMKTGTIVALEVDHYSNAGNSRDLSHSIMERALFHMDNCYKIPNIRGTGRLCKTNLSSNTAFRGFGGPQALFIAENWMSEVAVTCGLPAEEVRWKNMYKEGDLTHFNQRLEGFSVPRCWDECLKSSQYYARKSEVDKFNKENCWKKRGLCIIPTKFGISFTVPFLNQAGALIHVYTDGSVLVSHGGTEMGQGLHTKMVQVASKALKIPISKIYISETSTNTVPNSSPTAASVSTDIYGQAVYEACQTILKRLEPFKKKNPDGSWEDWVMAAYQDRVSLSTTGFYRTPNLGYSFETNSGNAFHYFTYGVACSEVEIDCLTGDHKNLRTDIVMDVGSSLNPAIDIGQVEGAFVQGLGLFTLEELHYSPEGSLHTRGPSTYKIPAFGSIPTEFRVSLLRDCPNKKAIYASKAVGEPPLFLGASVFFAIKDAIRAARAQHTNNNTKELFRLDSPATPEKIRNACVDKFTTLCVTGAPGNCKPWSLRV
Description: (1) Preparation of Test Compounds
Test compounds were dissolved in DMSO (Wako) at 40 mM concentration and then diluted to intended concentrations with phosphate-buffered saline (PBS).
(2) Method for Measurement
Xanthine oxidase (from bovine milk, Sigma) was prepared with phosphate-buffered saline (PBS) at 0.02 units/mL, and then the solution was added to 96 well plates at 50 μL/well. In addition, test compounds diluted with PBS were added at 50 μL/well. Xanthine (Wako) at 200 μM prepared with PBS was added at 100 μL/well, and the reaction was conducted for 10 minutes at room temperature. Absorbance at 290 nm was measured using a microplate reader SpectraMax Plus 384 (Molecular device). The absorbance under a condition without xanthine is 0%, and control without test compounds is 100%. Fifty % inhibitory concentration of a test compound (IC50) was calculated (Table 60). Ex. No in the table indicates Example number.

[3] = target: human URAT1 (Homo sapiens (Human), UniProt Q96S37); assay: Inhibitory activity of uric acid transport with human URAT1 expressing cells; format: cell-based; conditions: COS-7; 10 μM test compound; 14C-labeled uric acid uptake in COS7 cells transiently expressing human URAT1, 5 minutes
Chain of human URAT1 (Q96S37 whole entry): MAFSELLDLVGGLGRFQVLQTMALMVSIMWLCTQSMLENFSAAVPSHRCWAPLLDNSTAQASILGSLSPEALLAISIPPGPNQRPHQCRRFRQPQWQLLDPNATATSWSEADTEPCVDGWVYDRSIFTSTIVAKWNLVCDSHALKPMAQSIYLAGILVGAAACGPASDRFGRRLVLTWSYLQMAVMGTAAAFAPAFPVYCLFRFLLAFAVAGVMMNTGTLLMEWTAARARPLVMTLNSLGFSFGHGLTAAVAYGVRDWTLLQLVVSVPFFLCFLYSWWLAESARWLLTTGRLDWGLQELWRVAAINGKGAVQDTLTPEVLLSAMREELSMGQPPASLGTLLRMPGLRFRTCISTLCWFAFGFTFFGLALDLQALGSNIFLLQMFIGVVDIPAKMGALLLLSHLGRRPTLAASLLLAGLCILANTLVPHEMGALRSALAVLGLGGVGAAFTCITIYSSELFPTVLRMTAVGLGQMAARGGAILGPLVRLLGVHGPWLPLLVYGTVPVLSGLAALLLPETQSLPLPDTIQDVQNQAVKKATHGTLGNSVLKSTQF
Description: (1) Preparation of Transiently Human URAT1 Expressing Cells
Full length human URAT1 cDNA (NCBI Accession No. NM_144585) was subcloned into expression vector, pcDNA3.1 (Invitrogen). Human URAT1 expression vector was transfected into COS7 cells (RIKEN CELL BANK RCB0539) using Lipofectamine 2000. COS7 cells were cultured in collagen-coated 24 well plates (Asahi Techno Glass) at 2×10^5/well in D-MEM culture medium (Invitrogen) containing 10% fetal bovine serum (Sanko Junyaku) for 2 hours at 37° C. under the condition of 5% CO2. For 1 well, 2 μL of Lipofectamine 2000 was diluted in 50 μL of OPTI-MEM (Invitrogen) and allowed to stand at room temperature for 7 minutes (hereinafter referred to as Lipo2000-OPTI). For 1 well, 0.8 μg of human URAT1 expression vector was diluted in 50 μL of OPTI-MEM (Invitrogen) and combined gently with Lipo2000-OPTI. After standing at room temperature for 25 minutes, the mixture was added to COS7 cells at 100 μL/well. […]
All tests were performed on hot-plate at 37° C. […] After mixing, the radioactivity was counted in a liquid scintillation counter (PerkinElmer). The radioactivity in COST cells not transfected with URAT1 expression vector was also counted under the same condition as control. […]
• A: Radioactivity in control • B: Radioactivity in the case of addition of test compounds • C: Radioactivity in COST cells not transfected with URAT1 expression vector

[4] = system: BBMV from human kidney cortex (uric acid uptake); assay: Inhibitory activity of uric acid transport with brush-border membrane vesicles (BBMV); format: biochemical; conditions: 10 μM test compound; uptake of 14C-labeled uric acid into human kidney cortex BBMV, 20 seconds
Description: Inhibitory activity of uric acid transport of test compounds was performed on the basis of methods described in a reference (Am. J. Physiol. 266 (Renal Fluid Electrolyte Physiol. 35): F797-F805, 1994) with a partial modification.
(1) Preparation of BBMV from Human Kidney Cortex
BBMV from human kidney cortex were purchased from KAC. Renal cortex was dissected from human kidney and cut into small pieces. Then, the cortex was homogenized in 5 volumes of ice-cold isotonic buffer (300 mM mannitol, 5 mM ethylene glycol-bis-(β-aminoethylether)-N,N,N′,N′-tetraacetic acid (EGTA), 12 mM tris(hydroxymethyl)aminomethane (Tris).HCl, pH 7.4). After adding 1 M magnesium chloride to a final concentration of 12 mM, and then the suspension was mixed and allowed to stand on ice for 15 minutes. […] After centrifugation at 30,000×g for 30 minutes at 4° C., the pellet was resuspended in buffer 2, and then the protein concentration was determined. […]
BBMV were thawed on ice. […] The uptake of uric acid into BBMV was measured by the rapid-filtration technique. […] Furthermore, filters were washed twice with 3 mL of stop solution and dissolved in 10 mL of Filter-Count (PerkinElmer), and the radioactivity was counted in a liquid scintillation counter (PerkinElmer). The radioactivity associated with the filters in the absence of BBMV was used as corrections. […]

IC50 [2] [nM]	inhibition at 10 µM [3] [%]	SMILES	Percent decrease in uric acid (hypouricemic effect) [1]	inhibition % [4] [%]
3.9	–	N#Cc1cn(-c2ccc(C(=O)O)c(O)c2)c2ccc(F)cc12 [Example 191]	over 60%	–
4.3	–	N#Cc1cn(-c2ccc(C(=O)O)c(O)c2)c2cc(F)ccc12 [Example 192]	over 60%	–
12.6	–	CC(C)c1ccc2c(C#N)cn(-c3ccc(C(=O)O)c(O)c3)c2c1 [Example 237]	–	64

The next lines start with the compound.

SMILES	IC50 [2] [nM]	inhibition at 10 µM [3] [%]	Percent decrease in uric acid (hypouricemic effect) [1]	inhibition % [4] [%]
N#Cc1cn(-c2ccc(C(=O)O)c(O)c2)c2cc(F)c(F)cc12 [Example 3, 4-(3-Cyano-5,6-difluoroindol-1-yl)-2-hydroxybenzoic acid]	6.5	–	over 60%	–
N#Cc1cn(-c2ccc(C(=O)O)c(O)c2)c2ccccc12 [Example 188]	5	–	over 60%	–
N#Cc1cn(-c2ccc(C(=O)O)c(O)c2)c2cc(Cl)c(F)cc12 [Example 193]	4.6	47	–	–
N#Cc1cn(-c2ccc(C(=O)O)c(O)c2)c2cc3c(cc12)OCO3 [Example 194]	8.3	64	–	–
